From patent US20250223268A1, “4-Methylsulfonylbenzamide Compound, Preparation Method, Herbicidal Composition And Use” (Jiangsu Flag Chemical Industry Co., Ltd., priority 2022, published 2025)

How the values were obtained:
Type in all cases: in vivo
[1] = system: Eclipta prostrata; assay: Greenhouse herbicidal activity assay, post-emergence; details: Post-emergence test, rate 150 g a.i./hm^2, grade by fresh weight inhibition rate
Method in brief: (§1)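 Graded A (≥80%) to E (<20%) by fresh weight inhibition, read 14-21 days after spraying. Plants were pot-grown in a growth chamber and received foliar application at the 3-6 leaf stage, being air-dried and returned to the chamber afterwards.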

[2] = system: Echinochloa crusgalli; assay: as above; details: Post-emergence test, rate 150 g a.i./hm^2, grade by fresh weight inhibition rate
Method in brief: as §1

[3] = system: Leptochloa chinensis; assay: as above; details: Post-emergence test, rate 150 g a.i./hm^2, grade by fresh weight inhibition rate
Method in brief: as §1

[4] = system: Digitaria sanguinalis; assay: as above; details: Post-emergence test, rate 150 g a.i./hm^2, grade by fresh weight inhibition rate
Method in brief: as §1

[5] = system: Cyperus iria; assay: as above; details: Post-emergence test, rate 150 g a.i./hm^2, grade by fresh weight inhibition rate
Method in brief: as §1

[6] = system: Echinochloa crusgalli; assay: Greenhouse herbicidal activity and crop safety comparison (Test Example 2)
Method in brief: (§2)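 Fresh weight inhibition, banded into grades A to E (E <20%), was rated 14-21 days after foliar spraying of 3-6 leaf plants, or 14-30 days after a soil spray applied 24 h post-sowing.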

[7] = system: Oryza sativa subsp. indica; assay: as above
Method in brief: as §2

[8] = system: Oryza sativa subsp. japonica; assay: as above
Method in brief: as §2

[9] = system: Digitaria sanguinalis; assay: as above
Method in brief: as §2

[10] = system: Zea mays; assay: as above
Method in brief: as §2

Structure (SMILES)	Oryza sativa subsp. indica, grading of fresh weight inhibition rate (crop safety) ([7]; Rate 75 g/ha)	Oryza sativa subsp. indica, grading of fresh weight inhibition rate (crop safety) ([7]; Rate 150 g/ha)	Oryza sativa subsp. japonica, grading of fresh weight inhibition rate (crop safety) ([8]; Rate 75 g/ha)	Oryza sativa subsp. japonica, grading of fresh weight inhibition rate (crop safety) ([8]; Rate 150 g/ha)	Zea mays, grading of fresh weight inhibition rate (crop safety) ([10]; Rate 75 g/ha)	Zea mays, grading of fresh weight inhibition rate (crop safety) ([10]; Rate 150 g/ha)	Control efficacy grade, Eclipta prostrata [1]	Control efficacy grade, Echinochloa crusgalli [2]	Control efficacy grade, Digitaria sanguinalis [4]	Control efficacy grade, Cyperus iria [5]	Echinochloa crusgalli, control efficacy grading (fresh weight inhibition rate) ([6]; Rate 75 g/ha)	Echinochloa crusgalli, control efficacy grading (fresh weight inhibition rate) ([6]; Rate 150 g/ha)	Digitaria sanguinalis, control efficacy grading (fresh weight inhibition rate) ([9]; Rate 150 g/ha)	also measured
CC(C)S(=O)(=O)c1c(S(C)(=O)=O)ccc(C(=O)Nc2ncnn2C)c1Cl [Compound 2-10, 2-chloro-3-(isopropylsulfonyl)-N-(1-methyl-H-1,2,4-triazol-5-yl)-4-(methylsulfonyl)benzamide]	E (Fresh weight inhibition rate<20%)	E (Fresh weight inhibition rate<20%)	E (Fresh weight inhibition rate<20%)	E (Fresh weight inhibition rate<20%)	E (Fresh weight inhibition rate<20%)	E (Fresh weight inhibition rate<20%)	–	–	–	–	–	–	–	pest or weed control at 150 g/ha ([1]; Eclipta prostrata, read-out: Control efficacy grade, Eclipta prostrata): 80 to 100%; pest or weed control at 150 g/ha ([2]; Echinochloa crus-galli, read-out: Control efficacy grade, Echinochloa crusgalli): 80 to 100%; pest or weed control at 150 g/ha ([3]; Dinebra chinensis, read-out: Control efficacy grade, Leptochloa chinensis): 80 to 100%; pest or weed control at 150 g/ha ([4]; Digitaria sanguinalis, read-out: Control efficacy grade, Digitaria sanguinalis): 80 to 100%; pest or weed control at 150 g/ha ([5]; Cyperus iria, read-out: Control efficacy grade, Cyperus iria): 80 to 100%; inhibition at 75 g/ha ([6]; Echinochloa crus-galli, Rate 75 g/ha, read-out: Echinochloa crusgalli, control efficacy grading (fresh weight inhibition rate)): 80 to 100%; inhibition at 150 g/ha ([6]; Echinochloa crus-galli, Rate 150 g/ha, read-out: Echinochloa crusgalli, control efficacy grading (fresh weight inhibition rate)): 80 to 100%; inhibition at 75 g/ha ([9]; Digitaria sanguinalis, Rate 75 g/ha, read-out: Digitaria sanguinalis, control efficacy grading (fresh weight inhibition rate)): 80 to 100%; inhibition at 150 g/ha ([9]; Digitaria sanguinalis, Rate 150 g/ha, read-out: Digitaria sanguinalis, control efficacy grading (fresh weight inhibition rate)): 80 to 100%
Cn1ncnc1NC(=O)c1ccc(S(C)(=O)=O)c(S(=O)(=O)C2CCCC2)c1Cl [Compound 2-46]	E (Fresh weight inhibition rate<20%)	E (Fresh weight inhibition rate<20%)	E (Fresh weight inhibition rate<20%)	E (Fresh weight inhibition rate<20%)	E (Fresh weight inhibition rate<20%)	E (Fresh weight inhibition rate<20%)	A (Fresh weight inhibition rate≥80% to 100%)	A (Fresh weight inhibition rate≥80% to 100%)	A (Fresh weight inhibition rate≥80% to 100%)	A (Fresh weight inhibition rate≥80% to 100%)	A (Fresh weight inhibition rate≥80% to 100%)	A (Fresh weight inhibition rate≥80% to 100%)	A (Fresh weight inhibition rate≥80% to 100%)	Control efficacy grade, Leptochloa chinensis [3]: A (Fresh weight inhibition rate≥80% to 100%)
Cn1ncnc1NC(=O)c1ccc(S(C)(=O)=O)c(S(=O)(=O)C2CCC2)c1Cl [Compound 2-41]	E (Fresh weight inhibition rate<20%)	E (Fresh weight inhibition rate<20%)	E (Fresh weight inhibition rate<20%)	E (Fresh weight inhibition rate<20%)	E (Fresh weight inhibition rate<20%)	E (Fresh weight inhibition rate<20%)	A (Fresh weight inhibition rate≥80% to 100%)	A (Fresh weight inhibition rate≥80% to 100%)	A (Fresh weight inhibition rate≥80% to 100%)	A (Fresh weight inhibition rate≥80% to 100%)	A (Fresh weight inhibition rate≥80% to 100%)	A (Fresh weight inhibition rate≥80% to 100%)	A (Fresh weight inhibition rate≥80% to 100%)	–
